{"source": "patent US11230542B2", "about": "“Inhibitors of integrated stress response pathway” (Praxis Biotech LLC, priority 2017, dated 2022)", "key": {"ATF4": {"system": "ATF4", "experiment": "ATF4 expression inhibition assay (thapsigargin-stressed HEK293T cells, western blot)", "assay_type": "cell-based", "settings": "Homo sapiens, HEK-293T", "summary_of_the_method": "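HEK293T cells treated with thapsigargin (Tg) plus test compound (100 nM or 1 μM) for 3 hours, then lysed; ATF4 measured by western blot with ECL and densitometry. % inhibition normalized to Tg alone (0%) and untreated cells (100%); IC50 also calculated.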"}, "[1]": {"system": "19-month old male C57Bl/6J mice", "experiment": "Learning memory in aged mice (8-arm radial water maze, hippocampal ATF4)", "assay_type": "in vivo, mouse", "settings": "5 mg/kg intraperitoneally, versus vehicle", "from_the_text": "Wild type 19-month old male C57Bl/6J mice were used in an 8-arm radial water maze (RAWM) to measure the hippocampal-mediated learning memory. The maze involved a pool 118.5 cm in diameter and 25 cm high with 8 arms, each 41 cm in length, and an escape platform that could be moved. The pool was filled with water that was rendered opaque by adding white paint (Crayola, 54-2128-053). The escape platform remains hidden during the experiment. Visual cues were placed around the room such that they were visible to animals exploring the maze. […]\nBehavioral tests were recorded and scored using a video tracking and analysis setup (Ethovision XT 8.5, Noldus Information Technology). The program automatically analyzed the number of incorrect arm entries (termed number of errors) made per trial. […]\nAt the end of the behavioral test, animals were sacrificed and the hippocampi were extracted and immediately frozen in liquid nitrogen and then stored at −80° C. […] Protein concentration in supernatants was determined using BCA Protein Assay Kit (Pierce). […]\nATF4 (11815) antibody (Cell Signaling Technologies) and β-actin (Sigma-Aldrich) antibodies were used as primary antibodies. […] Quantification of protein bands was done by densitometry using ImageJ software."}, "fasted Balb/c mice": {"system": "fasted Balb/c mice", "experiment": "Fasting-induced muscle atrophy", "assay_type": "in vivo, mouse", "settings": "10 mg/kg oral", "protocol": "Wild type eight-weeks-old male Balb/c mice obtained from the vivarium Fundacion Ciencia & Vida Chile (Santiago, Chile) were used. Mice were housed in independent plastic cages in a room maintained at 25° C. with a 12-h:12-h light:dark cycle.\nTwenty-four hours before and during the 2 days of fasted procedures, animals received oral administration via feeding tubes (15 gauge) of vehicle (50% Polyethylene glycol 400 (Sigma-Aldrich P3265) in distilled water or 10 mg/kg of compound 3 formulated in vehicle solution.\nAfter 2 days of fasting the animals were sacrificed and muscles were removed from both hindlimbs. Mice with feed and water ad libitum were used as control.\nFor in vivo measurements of protein synthesis, puromycin (Sigma-Aldrich, P8833) was prepared at 0.04 μmol/g body weight in a volume of 200 μL of PBS, and subsequently administered into the animals via IP injection, 30 min prior to muscle collection.\nUpon collection, muscles were immediately frozen in liquid nitrogen and then stored at −80° C. […] Protein concentration in supernatants was determined using BCA Protein Assay Kit (Pierce). […]\nPuromycin (12D10) (Merck Millipore) and β-actin (Sigma-Aldrich) antibodies were used as primary antibodies. […] Quantification of protein bands was done by densitometry using ImageJ software. […]"}}, "data": [{"smiles": "O=C(COc1ccc(Cl)cc1)N[C@H]1CC[C@H](NC[C@@H](O)COc2ccc(Cl)cc2)CC1", "note": "(single isomer, unassigned) [Compound 3, (+)-2-(4-chlorophenoxy)-N-(4-((3-(4-chlorophenoxy)-2-hydroxypropyl)amino)cyclohexyl)acetamide]", "values": [{"measurement": "IC50", "setting": "ATF4; 3 h with 100 nM Tg, test compound 1 nM to 1 μM", "value": 145, "unit": "nM"}, {"measurement": "inhibition at 0.1 µM", "setting": "ATF4; 3 h with 100 nM thapsigargin (Tg) and 100 nM test compound, Tg alone 0%, untreated 100%", "value": 35, "unit": "%"}, {"measurement": "inhibition at 1 µM", "setting": "ATF4; 3 h with 100 nM thapsigargin (Tg) and 1 μM test compound, Tg alone 0%, untreated 100%", "value": 77, "unit": "%"}, {"measurement": "ATF4 expression normalized to β-actin in hippocampi", "setting": "[1]", "value": "lower levels of ATF4 expression compared with vehicle-treated animals"}, {"measurement": "RAWM task performance (learning memory)", "setting": "[1]", "value": "performed better than vehicle-treated animals"}, {"measurement": "protein synthesis, puromycin staining in muscle fiber CSA", "setting": "fasted Balb/c mice", "value": "partial recovery of protein synthesis"}]}]}
